Assay [1] concerns tissue of medial septum nuclei. Particulars: rat medial septum nuclei acetylcholinergic neuron; Reference 1; cited from earlier work.
For assay [2], the system named is tissue of medial septum nuclei. The assay is described as follows: acetylcholine synthesis activity of cultured medial septum nucleus tissue (method of Ojika et al.). The format is cell-based. The following applies: human-derived HCNP peptide compared with rat-derived HCNP. From the text: The neurotrophic activity (also called neurotrophic factor activity) refers to, for example, an action of regulating differentiation and maturation of neuronal cells, namely, an action of accelerating the acetylcholine synthesis in the tissue of medial septum nuclei which is rich in cholinergic neurons.
The human-derived neurotrophic peptide or its derivatives of the present invention can regulate differentiation and maturation of neuronal cells. That is, the neurotrophic peptide and derivatives thereof accelerate the acetylcholine synthesis in the tissue of medial septum nuclei. The biological activity can be determined by the method of Ojika, K., et a. (Reference 66).
Medial septal nucleus was extracted from the brains of 16-day-old SD rat embryos and microscopically dissected into small pieces. […]
Except in the experiment for the study of sequential growth, the cultured tissue on the 9th day was washed with a Tris-HCl (pH 7.4) buffered Tyrode's solution, followed by preincubation in a high-K (55 mM KCl) Tyrode's solution, and then incubation in a Tyrode's solution containing ^3 H-choline chloride at 37° C. for 30 minutes. […] The choline uptake and Ach-productivity were expressed as amounts per one piece of cultured tissue. Choline acetyl-transferase (CATase) was measured using ^14 C-acetyl-CoA, according to the method of Fonnum, biochemical Journal, 115, 465-472 (1969). […]

We go through two substances from patent US5759991A, “Neurotrophic peptide derivatives” (Sumitomo Pharmaceutical Company, Limited., priority 1991, dated 1998).

In the case of “HCNP: hippocampal cholinergic neurotrophic peptide composed of 11 amino acid residues isolated from hippocampal tissue of neonatal rat (AADISQWAGPL)”, the production of acetylcholine result in assay [1] is “enhances production of acetylcholine”.

For the substance “H-PVDLSKWSGPL-OH [hHCNP, H-Pro-Val-Asp-Leu-Ser-Lys-Trp-Ser-Gly-Pro-Leu-OH]”, the “neurotrophic activity (acceleration of acetylcholine synthesis)” value in assay [2] is on record as “neurotrophic activity similar to rat-derived HCNP was noted”.
